{"source": "patent US7534455B2", "about": "“Herbal composition PHY906 and its use in chemotherapy” (Yale University, priority 2000, dated 2009)", "key": {"[1]": {"test": "Pharmacokinetics of capecitabine in animal models", "type": "in vivo, mouse", "protocol": "(§1) Plasma Handling: The mouse plasma was separated from the blood by centrifugation at 10,000 g at 4° C. for 10 min.\na) Capecitabine-containing sample: The plasma (50 μl) was extracted with 200 μl of acetonitrile in the presence of 10 μl of 5-iodouracil (IU)(50 μg/ml) as an internal standard. After centrifugation, the supernatant from capecitabine-containing sample was dried by a speedvac, reconstituted with 50 μl of 0.1 M sodium acetate buffer (pH 4.8), and extracted with 1.3 ml of water-saturated ethyl acetate. The organic layer was separated after centrifugation (10,000 g at 4° C. for 10 min), dried by a speedvac and reconstituted with 100 μl of water.\n(§2) The resultant analyte was then analyzed by HPLC with UV absorption and/or radioactivity."}, "hepatocellular carcinoma": {"system": "hepatocellular carcinoma", "settings": "cited from earlier work"}, "colorectal cancer": {"system": "colorectal cancer", "settings": "cited from earlier work; for Median survival time / Median time to disease progression: NS"}, "[2]": {"test": "Toxicity (tolerable dose, body weight loss, death) in nude mice bearing human HepG2 xenografts", "type": "in vivo, NCr-nude mice", "protocol": "Weight loss was observed immediately after CPT-11 treatment and continued for six days in mice injected with 400 mg/kg of CPT-11. These animals gradually recovered their original body weight on day 12. […] The maximum tolerable dose of CPT-11 in nude mice bearing the human HepG2 xenografts was 200 mg/kg (data not shown).\nHuman HepG2 tumor cells were implanted into NCr-nude mice to test the effect of PHY906 on the antitumor activity of CPT-11. […] CPT-11 (200 mg/kg, i.p.) was given on day 0. PHY906 was given twice daily at 500 mg/kg starting on day 0.\nBased upon the known pharmacological profiles of herbs contained in PHY906, it was speculated that the enhancing effects might act through immunological and/or hematological systems in normal mice. Therefore, experiments were designed to test the hypothesis in nude mice, which are deficient in immunological and hematological systems. Human hepatocellular carcinoma HepG2 cells were implanted into NCr-nude mice to test the effect of PHY906 on the antitumor activity of CPT-11. […] CPT-11 (200 mg/kg, i.p.) was given on day 0. PHY906 was given twice daily at 500 mg/kg starting on day 0 and continued for 8 days. As shown in 31, PHY906 enhanced the antitumor effect of CPT-11 on human HepG2 xenografts in nude mice."}, "[3]": {"test": "Determination of CPT-11 dose in non-tumor bearing BDF-1 mice (weight loss, death)", "type": "in vivo", "settings": "single i.p. bolus", "protocol": "Animal weight loss was monitored as an indication of toxicity caused by anticancer chemotherapy agents. The effect of CPT-11 on weight loss in non-tumor bearing BDF-1 mice was studied using six different dosages: 100, 200, 300, 400, 600, or 800 mg/kg body weight to determine the maximum tolerable dose in mice. A single bolus dose of CPT-11 was administered intraperitoneally (i.p.) at the beginning of the study, and weight loss was monitored daily for 12 days.\nOne dose of CPT-11 was administered i.p. to each mouse at the beginning of the study, and the weight loss of the animal was then monitored daily for 12 days."}, "[4]": {"test": "Pharmacokinetics of CPT-11/FU/LV in BDF-1 mice bearing Colon 38 tumor", "type": "in vivo", "settings": "triple combination CPT-11/FU/LV", "source_text": "The pharmacokinetic data of CPT-11/FU/LV in BDF-1 mice bearing Colon 38 tumor in the presence and absence of PHY906 are shown in FIGS. 18-20. PHY906-6 is a clinical batch of PHY906, containing 10% excipient (starch)."}, "[5]": {"test": "Host toxicity (body weight loss, mortality, blood cell counts) in chemotherapy treated BDF-1 mice bearing Colon 38 tumor", "type": "in vivo", "protocol": "Anti-Tumor Studies: Murine Colon 38 (1-2×10^6 cells in 0.1 ml PBS) or human HepG2 cells (1-2×10^6 cells in 0.1 ml PBS) were transplanted subcutaneously into BDF1 or NCr athymic nude mice, respectively. The length and width of the tumors were measured daily with sliding calipers. The tumor weight was estimated according to the following formula (Pizzorno G, Wiegand R, Lentz S, et al., Cancer Res. 52:1660-1665 (1992)): Tumor weight (mg)=length (mm)×width (mm)^2/2.\nAfter 10 to 14 days, mice (five animals/group) with tumor weights ranging from 150-200 mg were selected for drug studies (Guo X, Lerner-Tung M, Chen H X, et al., Biochem Pharmacol 49:1111-1116 (1995)). Mice were sacrificed when the tumor size reached 10% of body weight. PHY906 was administered orally either alone or with anti-cancer chemotherapeutic agents. The effect of PHY906 on antitumor efficacy and the reduction of toxicity by the agents were evaluated. CPT-11 was given intraperitoneally (i.p.) 30 min after PHY906 administration with the selected dose. The regimen of FU/LV combination therapy was given as follows:\nThe first day of treatment was defined as day 0. PHY906 was given orally twice a day (10 am and 3 pm) for either 4 or 8 days beginning on day 0. For the control group, mice were administrated a vehicle, either PBS for i.p. or H2O for p.o. (oral administration). Animals were monitored for mortality, weight loss, and tumor size daily.\nBlood Cell Counts: Blood (20 μl) was taken from mice on days 0, 3, 6, 9 and 12 with micro-capillary tubes. Blood was then be diluted to 200 μl with normal saline (0.85% Sodium Chloride). WBC, RBC and platelets were counted by a BAKER SYSTEM 9100™ […] (Biochem ImmunoSystems Inc., Allentown, Pa. 18103-9562).\nPHY906 was evaluated as a modulator of CPT-11 therapy for toxic side effects in mice inoculated with Colon 38 tumor cells. Based on the previous findings (Example 2), a single bolus dose of 400 mg/kg CPT-11 was selected to study the effect of PHY906 on weight-loss associated with toxicity of CPT-11. To evaluate whether PHY906 impairs the antitumor efficacy of CPT-11, mice were implanted subcutaneously with Colon 38 tumor cells. Ten to 14 days after inoculation, mice were treated with CPT-11 (400 mg/kg, i.p.) in the absence or presence of PHY906, which was given orally twice a day at varying doses (125 mg/kg, 250 mg/kg, and 500 mg/kg). PHY906 treatment was continued at the dose indicated for 8 consecutive days.\nMice were divided into four groups with different treatment regimens: Group (A) treatment with vehicle; Group (B) treatment with a single dose of 400 mg/kg CPT-11 by i.p. injection; Group (C) treatment with PHY906 (500 mg/kg/b.i.d.) alone; or Group (D) treatment with a single dose of 400 mg/kg CPT-11 plus 500 mg/kg/b.i.d. PHY906 for 4 or 8 days. The sequence of each treatment regimen appears in Materials and Methods. As depicted in Table 9, 35 of 35 tumor-bearing mice (100%) from Group A and 15 of 15 mice (100%) from Group C survived treatment with either vehicle or PHY906 alone for 4 or 8 days, indicating no or very low toxicity for PHY906."}, "[6]": {"test": "Pharmacokinetics of gemcitabine (dFdC) and dFdU in plasma of PAN02 bearing BDF-1 mice", "type": "in vivo", "settings": "for AUC, dFdC + PHY906: PHY906 500 mg/kg 30 min before gemcitabine; for AUC, dFdC alone: gemcitabine 600 mg/kg", "protocol": "as §1\nb) Gemcitabine-containing plasma: The plasma (50 μl) was extracted with 200 μl of acetonitrile (ACN) in the presence of 5 μl of 0.1 mM AZT as an internal standard. After centrifugation, the supernatant was dried by a Speedvac, reconstituted with 100 μl of solution containing 2.5% ACN and 97.5% of 15 mM ammonium acetate (pH 5.0).\nas §2\nTo determine, for a future clinical trial, if PHY906 would change the metabolism of gemcitabine, a pharmacokinetics analysis in mice bearing pancreatic cancer was performed. Mice were divided into three sets of 15: gemcitabine only, gemcitabine plus PHY906, and vehicle control. Each mouse in the set was bled twice at two different time points. Plasma was processed as described in Materials and Methods and analyzed by HPLC with radioactivity confirmation of peak identity and quantitation."}, "[7]": {"settings": "CPT-11 400 mg/kg, 1 day, alone, observed 14 days"}}, "note": "Like-named read-outs stand apart in the source and are kept apart here."}
{"smiles": "CCCCCOC(=O)Nc1nc(=O)n([C@@H]2O[C@H](C)[C@@H](O)[C@H]2O)cc1F", "note": "[capecitabine, 5′-deoxy-5-fluoro-N-[(pentyloxy)carbonyl]-cytidine]", "values": [{"measurement": "Pharmacokinetic profile on co-administration of PHY906", "setting": "[1]", "value": "did not alter the pharmacokinetic profile"}, {"measurement": "Response rate", "setting": "hepatocellular carcinoma; 55 patients with nonresectable hepatobiliary carcinoma", "value": 13, "unit": "%"}, {"measurement": "Response rate", "setting": "hepatocellular carcinoma; hepatocellular carcinoma / liver cancer, systemic chemotherapy", "value": 13, "unit": "%"}, {"measurement": "Median survival time", "setting": "colorectal cancer; Hoff et al. 2001", "value": 380, "unit": "days"}, {"measurement": "Median time to disease progression", "setting": "colorectal cancer; Hoff et al. 2001", "value": 128, "unit": "days"}, {"measurement": "Response rate", "setting": "colorectal cancer; Hoff et al. 2001, P=0.0014", "value": 21, "unit": "%"}, {"measurement": "Median survival time", "setting": "colorectal cancer; Van Cutsem et al. 2001", "value": 404, "unit": "days"}, {"measurement": "Median time to disease progression", "setting": "colorectal cancer; Van Cutsem et al. 2001", "value": 137, "unit": "days"}, {"measurement": "Response rate", "setting": "colorectal cancer; Van Cutsem et al. 2001, P=0.027", "value": 21, "unit": "%"}]}
{"smiles": "CCc1c2c(nc3ccc(OC(=O)N4CCC(N5CCCCC5)CC4)cc13)-c1cc3c(c(=O)n1C2)COC(=O)[C@]3(O)CC", "note": "[CPT-11, Irinotecan]", "values": [{"measurement": "Maximum tolerable dose", "setting": "[2]", "value": 200, "unit": "mg/kg"}, {"measurement": "Dosages with little effect on body weight", "setting": "[3]", "value": "lower than 200 mg/kg"}, {"measurement": "Doses resulting in animal death on the second day", "setting": "[3]", "value": "greater than or equal to 600 mg/kg"}, {"measurement": "Doses mice were able to tolerate", "setting": "[3]; 12 days", "value": "up to 400 mg/kg"}, {"measurement": "Level in tumor or liver tissues after PHY906 co-administration", "setting": "[4]", "value": "no significant change"}, {"measurement": "AUC in plasma after co-administration of PHY906", "setting": "[4]; PHY906-6", "value": "increases"}, {"measurement": "Survival", "setting": "[5]; [7]", "value": 82.5, "unit": "%"}, {"measurement": "Total No. of Mice Survived N", "setting": "[5]; [7]", "value": 33}, {"measurement": "Animal Death (Death/Total)", "setting": "[5]; CPT-11 treated mice, observed for 14 days", "value": "7/40"}, {"measurement": "Response rate, second-line therapy", "setting": "colorectal cancer; advanced colorectal cancer", "value": "10%-15%"}]}
{"smiles": "O=c1ccn(C2OC(CO)C(O)C2(F)F)c(=O)[nH]1", "note": "(stereo not shown) [dFdU]", "values": [{"measurement": "Cmax, dFdC + PHY906", "setting": "[6]; Radioactivity detection", "value": 48000, "unit": "ng/mL"}, {"measurement": "Cmax, dFdC alone", "setting": "[6]; Radioactivity detection", "value": 31000, "unit": "ng/mL"}, {"measurement": "Tmax, dFdC + PHY906", "setting": "[6]; Radioactivity detection", "value": 2, "unit": "h"}, {"measurement": "Tmax, dFdC alone", "setting": "[6]; Radioactivity detection", "value": 1, "unit": "h"}, {"measurement": "T½, dFdC + PHY906", "setting": "[6]; Radioactivity detection", "value": 0.82, "unit": "h"}, {"measurement": "T½, dFdC alone", "setting": "[6]; Radioactivity detection", "value": 1.55, "unit": "h"}, {"measurement": "AUC, dFdC + PHY906", "setting": "[6]; Radioactivity detection", "value": 8.5, "unit": "mg·min/mL"}, {"measurement": "AUC, dFdC alone", "setting": "[6]; Radioactivity detection", "value": 5.8, "unit": "mg·min/mL"}, {"measurement": "Cmax, dFdC + PHY906", "setting": "[6]; UV detection", "value": 22000, "unit": "ng/mL"}, {"measurement": "Cmax, dFdC alone", "setting": "[6]; UV detection", "value": 14000, "unit": "ng/mL"}, {"measurement": "Tmax, dFdC + PHY906", "setting": "[6]; UV detection", "value": 2, "unit": "h"}, {"measurement": "Tmax, dFdC alone", "setting": "[6]; UV detection", "value": 1, "unit": "h"}, {"measurement": "T½, dFdC + PHY906", "setting": "[6]; UV detection", "value": 1.16, "unit": "h"}, {"measurement": "T½, dFdC alone", "setting": "[6]; UV detection", "value": 1.64, "unit": "h"}, {"measurement": "AUC, dFdC + PHY906", "setting": "[6]; UV detection", "value": 4.4, "unit": "mg·min/mL"}, {"measurement": "AUC, dFdC alone", "setting": "[6]; UV detection", "value": 3.1, "unit": "mg·min/mL"}, {"measurement": "Levels in circulation in the presence or absence of PHY906", "setting": "[6]; plasma", "value": "not a dramatic difference"}]}
{"smiles": "O=c1[nH]cc(F)c(=O)[nH]1", "note": "[FU, 5-fluorouracil]", "values": [{"measurement": "AUCs of FU and its nucleoside/nucleotide metabolites (FU+FUR+FUMP) in plasma or liver after PHY906 co-administration", "setting": "[4]", "value": "change"}, {"measurement": "Response rate in patients with advanced disease", "setting": "colorectal cancer; human, in vivo", "value": "10%-12%"}]}
{"smiles": "CCc1c2c(nc3ccc(O)cc13)-c1cc3c(c(=O)n1C2)COC(=O)[C@]3(O)CC", "note": "[SN-38]", "values": [{"measurement": "Level in plasma, liver, or tumor after PHY906 co-administration", "setting": "[4]", "value": "remains unchanged"}]}
{"smiles": "COc1cccc2c1C(=O)c1c(O)c3c(c(O)c1C2=O)C[C@@](O)(C(=O)CO)C[C@@H]3O[C@H]1C[C@H](N)[C@H](O)[C@H](C)O1", "note": "[doxorubicin, Doxorubicin]", "values": [{"measurement": "Response rate", "setting": "hepatocellular carcinoma; eight trials, 475 evaluable patients (range 0-35%)", "value": 16, "unit": "%"}]}
